{
  "source": "patent US20130040908A1",
  "about": "“SUBSTITUTION DERIVATIVES OF N6-BENZYLADENOSINE-5' -MONOPHOSPHATE, METHODS OF PREPARATION THEREOF, USE THEREOF AS MEDICAMENTS, AND THERAPEUTIC PREPARATIONS CONTAINING THESE COMPOUNDS” (BIOAPEX, S.R.O., priority 2010, published 2013)",
  "key": {"p21^WAF-1": {"test_system": "p21^WAF-1", "test": "p21WAF-1 induction in MCF-7 cells (immunoblot)", "format": "cell-based", "conditions": "MCF-7, 0-100 μM 12 hours; 1 μM 0.5-24 hours", "experimental": "MCF-7 cells cultured at 37° C. in 5% CO2 atmosphere in DMEM medium supplemented with 10% foetal calf serum were treated with compound 28 concentration ranges of 0-100 μM. Compound 28 was added into the medium from the 100 mM stock solution in DMSO. Cells were harvested 12 hours after incubation with compound 28, centrifuged (1000 rpm, 4° C., 5 min), washed twice by ice-cold PBS and re-centrifuged. These washed cells were then lysed by 1×CSB (loading buffer for SDS-PAGE, i.e. electrophoresis of proteins in polyacrylamide gel containing SDS). Cell lysate proteins were separated by SDS-PAGE and transferred onto a nitrocelulose (NC) membrane. NC membrane was blocked by 5% skimmed milk, 0.1% Tween 20 in PBS. Protein level of p21^WAF-1 and actin (as a loaded protein volume control) were detected immunochemically using commercially available specific monoclonal antibodies anti-p21^WAF-1 (Ab-1, Calbiochem) and anti-Actin (Clone AC-40, Sigma-Aldrich). The primary antibodies bind to target proteins were detected using rabbit secondary peroxidase-labeled antibody (RAM-Px, DAKO), followed by chemiluminiscence (ECL, Amersham-Pharmacia)."}, "Human lymphocytes": {"test_system": "Human lymphocytes", "test": "Immunosuppressive activity, 3H-thymidine incorporation in concanavalin A activated lymphocytes", "format": "cell-based", "conditions": "72 hours, [3H]-TdR", "text": "One of the most important parameters of specific cellular immunity is the proliferative response of lymphocytes to antigens or polyclonal mitogens. The majority of normal mammalian peripheral lymphocytes comprise resting cells. Antigens or nonspecific polyclonal mitogens have the capacity to activate lymphoid cells and this is accompanied by dramatic changes of intracellular metabolism (mitochondrial activity, protein synthesis, nucleic acids synthesis, formation of blastic cells and cellular proliferation). […] Variety of in vitro assays was developed to measure proliferative response of lymphocytes. The most commonly used is ^3H-thymidine incorporation method.\nDuring cell proliferation, DNA has to be replicated before the cell is divided into two daughter cells. This close association between cell doublings and DNA synthesis is very attractive for assessing cell proliferation. If labelled DNA precursors are added to the cell culture, cells that are about to divide incorporate the labelled nucleotide into their DNA. Traditionally, those assays usually involve the use of radiolabelled nucleosides, particularly tritiated thymidine ([^3H]-TdR). The amount of [^3H]-TdR incorporated into the cellular DNA is quantified by liquid scintillation counting. Human heparinized peripheral blood was obtained from healthy volunteers by cubital vein punction. The blood was diluted in PBS (1:3) and mononuclear cells were separated by centrifugation in Ficoll-Hypaque density gradient (Pharmacia, 1.077 g/ml) at 2200 rpm for 30 minutes. Following centrifugation, lymphocytes were washed in PBS and resuspended in cell culture medium (RMPI 1640, 2 mM glutamine, 100 U/ml penicillin, 100 μg/ml streptomycin, 10% fetal calf serum and sodium bicarbonate).\nThe cells were diluted at target density of 1.100.000 cells/ml and were added by pipette (180 μl) into 96-well microtiter plates. Four-fold dilutions of the intended test concentration were added at time zero in 20 μl aliquots to the microtiter plate wells. Usually, test compound was evaluated at six 4-fold dilutions. In routine testing, the highest well concentration was 266.7 μM. All drug concentrations were examined in duplicates. All wells with exception of unstimulated controls were activated with 50 of concanavalin A (25 μg/ml). Incubations of cells with test compounds lasted for 72 hours at 37° C., in 5% CO2 atmosphere and 100% humidity. At the end of incubation period, the cells were assayed by using the [^3H]-TdR:\nCell cultures were incubated with 0.5 μCi (20 μl of stock solution 500 μCi/ml per well for 6 hours at 37° C. and 5% CO2. The automated cell harvester was used to lyse cells in water and adsorb the DNA onto glass-fiber filters in the format of microtiter plate. The DNA incorporated [^3H]-TdR was retained on the filter while unincorporated material passes through. The filters were dried at room temperature overnight, sealed into a sample bag with 10-12 ml of scintillant. The amount of [^3H]-TdR present in each filter (in cpm) was determined by scintillation counting in a Betaplate liquid scintillation counter. The effective dose of immunosuppressant (ED) was calculated using the following equation: ED=(CCPMdrug exposed well/mean CCPMcontrol wells)×100%. The ED50 value, the drug concentration inhibiting proliferation of 50% of lymphocytes, was calculated from the obtained dose response curves."}},
  "data": [
    {"smiles": "COc1cccc(CNc2ncnc3c2ncn3[C@@H]2O[C@H](COP(=O)(O)O)[C@@H](O)[C@H]2O)c1O", "note": "[Compound 28, 6-(2-hydroxy-3-methoxybenzylamino)purine riboside-5′-monophosphate]", "values": [
      {"measurement": "p21^WAF-1 protein induction", "setting": "p21^WAF-1", "value": "efficient p21^WAF-1 protein induction"},
      {"measurement": "Human lymphocytes ED50", "setting": "Human lymphocytes", "value": 1.2, "unit": "µM"}
    ]}
  ]
}
